The values that follow are results of earlier work, collected in patent US20210113495A1, “METHOD OF TREATING EPILEPSY OR EPILEPTIC ENCEPHALOPATHY WITH FENFLURAMINE IN PATIENTS WITHOUT PULMONARY HYPERTENSION” (ZOGENIX INTERNATIONAL LIMITED, priority 2018, published 2021).

SMILES strings stand for the structures.

Data set [1] deals with pulmonary arterial hypertension patients. As to conditions: PAH patients who had started treatment with bosentan.
In data set [2] the test system is patients with PH. As to conditions: short-term infusion.
Data set [3] has as its system children with refractory epilepsy. Particulars: dose of 0.5 to 1 mg/kg/day.
In data set [4] the test system is child suffering pattern sensitivity-induced seizures. As to conditions: one child, seizures resistant to anticonvulsive treatment.
The test system of data set [5] is self-induced photosensitive seizures. As to conditions: four cases.
Data set [6] has as its system patients with PH.
The mark [7] stands for this setting: initial right heart catheterization, resting, 15 women who had used fenfluramine, mean (SD).

For `COc1ccccc1Oc1c(NS(=O)(=O)c2ccc(C(C)(C)C)cc2)nc(-c2ncccn2)nc1OCCO` [bosentan], the “patients alive at 2 years” value in data set [1] is listed as 89%.
`CCCCC[C@H](O)/C=C/[C@@H]1[C@H]2C/C(=C/CCCC(=O)O)O[C@H]2C[C@H]1O` [epoprostenol]: the “mean fall in PVR compared with control values” in data set [2] (10 responding patients, mean (SD)) is listed as 24 (15%). Further, the vasodilator response result in data set [2] (15 women with PH who had used fenfluramine) was “significant vasodilator response in 10 patients”.
For the molecule `CCNC(C)Cc1cccc(C(F)(F)F)c1` (racemic) [fenfluramine, (RS)—N-ethyl-1-[3-(trifluoromethyl)phenyl]propan-2-amine], the “number of seizures experienced by the patients” value in data set [3] was “reduction in the number of seizures”. Further, the “effect on self-induced seizures” value in data set [4] was “successfully terminated these self-induced seizures”. Moreover, the “response of self-induced photosensitive seizures” value in data set [5] was “responded to treatment with fenfluramine”. For the same molecule, the “users with close temporal relation between fenfluramine use and development of exertional dyspnoea” value in data set [6] (10 of 15 women with PH who had used fenfluramine) is 67%. Also, the “overall survival, fenfluramine users vs controls” value in data set [6] (PH patients, transplant recipients excluded) is on record as “no significant difference in overall survival”. Moreover, in data set [6] (setting [7]), the “pulmonary artery pressure (PAP)” value was 57 (9) mm Hg and the “pulmonary vascular resistance (PVR)” value is given as 29 (10) U/m^2.
